Results taken from patent publication US20240368174A1, “Antiviral Heterocyclic Compounds” (Enanta Pharmaceuticals, Inc., priority 2023, published 2024).

The molecules below were run on genotype A, “Long” strain RSV (assay: RSV-A assay (CPE, ATPlite readout in Hep-2 cells)). Settings: human respiratory syncytial virus, activity class.
Format: cell-based, Human respiratory syncytial virus
Source text: Hep-2 cells, (originally derived from tumors grown in irradiated-cortisonised weanling rats that had been injected with epidermoid carcinoma tissue from the larynx of a person, but later found to be indistinguishable from HeLa cells by PCR DNA analysis), were used for the culturing of genotype A, “Long” strain RSV. Flasks were inoculated with RSV and viral stocks were collected once cytopathic effect (CPE) was greater than 90%. Viral stocks in 25% sucrose media were snap frozen using liquid nitrogen to increase viral stability. Viral stock titers were quantified by tissue culture infectious dose 50% (TCID50) using 8,000 cells per well and 3-fold viral dilutions across a 96-well plate, cultured for 4 days. Viral stock titers were also quantified by a plaque forming unit assay, as described elsewhere.
Following extensive parameter testing, the final assay is run as follows: Hep-2 cells are seeded into the inner 60 wells of a 96-well plate at 8,000 cells per well in a volume of 50 μL using Growth Media (DMEM without phenol red, 1% L-Glut, 1% Penn/Strep, 1% nonessential amino acids, 10% heat-inactivated FBS). 2-fold serial dilutions of control and test compounds are added to the wells in duplicate in a total volume of 25 μL. Viral stock is then added to the wells at a multiplicity of infection (MOI) of 0.1 in a volume of 25 μL, bringing the total volume of each well to 100 μL. The MOI is calculated using the PFU/mL, or TCID50 if unavailable. Each 96-well plate has a control column of 6 wells with cells and virus but no compound (negative control, max CPE), a column with cells but no compound or virus (positive control, minimum CPE), and a column with no cells or virus or compound (background plate/reagent control). The control wells with cells but no virus are given an additional 25 μL of growth media containing an equal quantity of sucrose as those wells receiving the viral stock in order to keep consistent in media and volume conditions. The outer wells of the plate are filled with 125 μL of moat media (DMEM, 1% Penn/Strep) to act as a thermal and evaporative moat around the test wells. Following a 5-day incubation period, the plates are read using ATPlite (50 uL added per well), which quantifies the amount of ATP (a measure of cell health) present in each well. Assay plates are read using the Envision luminometer. […] EC50 ranges are as follows: A<0.2 μM; B>0.2 μM.

EC50	SMILES
< 200 nM	COc1cc(C(=O)NC[C@](O)(c2cc3c(c(-n4ccc5c(F)cccc54)n2)OC[C@]3(C)C(N)=O)C(F)(F)F)cc2cc(C3CC3)nn12 [Example 686]
< 200 nM	COc1cc(C(=O)NC[C@](O)(c2cc3c(c(-n4ccc5c(F)cccc54)n2)OC[C@]3(C)C(N)=O)C(F)(F)F)cc2cn(C(F)F)nc12 [Example 684]
< 200 nM	COc1cc(C(=O)NC[C@](O)(c2cc3c(c(-c4cccc(F)c4Cl)n2)OC[C@]3(C)C(N)=O)C2CC2)cc2cn(C(F)F)nc12 [Example 614]
< 200 nM	COc1cc(C(=O)NC[C@](O)(c2cc3c(c(-c4ccnc(C)c4Cl)n2)OC[C@]3(C)C(N)=O)C2CC2)cc2cc(C3CC3)nn12 [Example 673]
< 200 nM	COc1cc(C(=O)NC[C@](O)(c2cc3c(c(-c4cncc(Cl)c4Cl)n2)OC[C@]3(C)C(N)=O)C2CC2)cc2oc(C3CC3)nc12 [Example 774]
< 200 nM	COc1cc(C(=O)NC[C@](O)(c2cc3c(c(-n4ncc5c(F)cccc54)n2)OC[C@]3(C)C(N)=O)C(F)(F)F)cc2cn(C3CC3)nc12 [Example 830]
< 200 nM	COc1cc(C(=O)NC[C@](O)(c2cc3c(c(-c4cc(C(F)(F)F)ncc4F)n2)OC[C@]3(C)C(N)=O)C(F)(F)F)cc2cn(C3CC3)nc12 [Example 425]
< 200 nM	COc1cc(C(=O)NC[C@](O)(c2cc3c(c(-c4cc(C(F)(F)F)ncc4F)n2)OC[C@]3(C)C(N)=O)C(F)(F)F)cc2cn(C(F)F)nc12 [Example 424]
< 200 nM	COc1cc(C(=O)NC[C@](O)(c2cc3c(c(-c4cccc(OC(F)F)c4Cl)n2)OC[C@]3(C)C(N)=O)C2CC2)cc2cn(C3CC3)nc12 [Example 439]
< 200 nM	COc1cc(C(=O)NC[C@](O)(c2cc3c(c(-n4ccc5c6c(ccc54)OC(F)(F)O6)n2)OC[C@]3(C)C(N)=O)C2CC2)cc2cn(C3CC3)nc12 [Example 855]
< 200 nM	COc1cc(C(=O)NC[C@](O)(c2cc3c(c(-c4ccnc(C)c4Cl)n2)OC[C@]3(C)C(N)=O)C2CC2)cc2cn(C3CC3)nc12 [Example 426]
< 200 nM	COc1cc(C(=O)NC[C@@](O)(c2ccnc(N(C)C)c2)c2cc3c(c(-c4cc(Cl)c(F)cc4F)n2)OC[C@]3(C)C(N)=O)cc2cn(C3CC3)nc12 [Example 884]
< 200 nM	COc1cc(C(=O)NC[C@](O)(c2cc3c(c(-c4ccnc5c4CCC5)n2)OC[C@]3(C)C(N)=O)C2CC2)cc2cn(C3CC3)nc12 [Example 421]
< 200 nM	COc1cc(C(=O)NC[C@](O)(c2cc3c(c(-c4cncc(Cl)c4Cl)n2)OC[C@]3(C)C(N)=O)C2CC2)cc2cn(C3CC3)nc12 [Example 740]
< 200 nM	COc1cc(C(=O)NC[C@](O)(c2cc3c(c(-n4nnc5ccccc54)n2)OC[C@]3(C)C(N)=O)C2CC2)cc2cn(C3CC3)nc12 [Example 450]
< 200 nM	COc1cc(C(=O)NC[C@](O)(c2cc3c(c(-c4ccnc5c4ccn5C)n2)OC[C@]3(C)C(N)=O)C2CC2)cc2cn(C3CC3)nc12 [Example 420]
< 200 nM	COc1cc(C(=O)NC[C@](O)(c2cc3c(c(-n4ccc5ccccc54)n2)OC[C@]3(C)C(N)=O)C2(F)CC2)cc2cn(C3CC3)nc12 [Example 716]
< 200 nM	COc1cc(C(=O)NC[C@@](O)(c2cc3c(c(-c4ccnc(Cl)c4Cl)n2)OC[C@]3(C)C(N)=O)C2CC2)cc2cn(C(F)F)nc12 [Example 733]
< 200 nM	COc1cc(C(=O)NC[C@](O)(c2cc3c(c(-n4ccc5ccccc54)n2)OC[C@]3(C)C(N)=O)C2CC2)cc2oc(C3CC3)nc12 [Example 748]
< 200 nM	COc1cc(C(=O)NC[C@](O)(c2cc3c(c(-n4ccc5ccc(F)cc54)n2)OC[C@]3(C)C(N)=O)C2CC2)cc2cn(C3CC3)nc12 [Example 454]
< 200 nM	COc1cc(C(=O)NC[C@](O)(c2cc3c(c(-c4cncc(Cl)c4Cl)n2)OC[C@]3(C)C(N)=O)C2CC2)cc2cn(C3(F)CC3)nc12 [Example 773]
< 200 nM	COc1cc(C(=O)NC[C@](O)(c2cc3c(c(-n4ccc5cc(F)ccc54)n2)OC[C@]3(C)C(N)=O)C2CC2)cc2cn(C3CC3)nc12 [Example 453]
